Each structure is given as a SMILES string.

The first test concerns PDE4. As to the kind of experiment: Evaluation of PDE4 inhibitory activity, scintillation proximity assay. The format is biochemical. The note with it: scintillation proximity assay; class symbols of Evaluation 1; read-out: PDE4 Inhibitory Activity (concentration for the inhibition rate of 50%, IC50), Evaluation 1. Summed up:
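SPA with [2,8-3H]-cAMP and diluted PDE4 enzyme preparation in 50 mM Tris-HCl pH 7.4, 8.3 mM MgCl2, 1.7 mM EGTA, 3 mg/mL BSA, 120 min at room temperature. Product captured on ZnSO4-containing YSi-SPA beads, scintillation counted; IC50 from inhibition curves vs DMSO control and no-enzyme blank.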
In general terms: SPA uses beads or plates that emit light when radiolabelled molecules are held near them.
On to `FC(F)(F)Oc1c(Cl)cc(-c2ccccn2)c2oc(N3CC4CCC(C3)N4)nc12` [Example 7, 2-(3,8-Diazabicyclo[3.2.1]octan-3-yl)-5-chloro-7-(pyridin-2-yl)-4-(trifluoromethoxy)benzo[d]oxazole], for which the IC50 is less than 100 nM.
For the compound `CSc1cc(-c2nccs2)c2oc(N3CC4CC(C3)N4)nc2c1` [Example 40, 2-(3,6-Diazabicyclo[3.1.1]heptan-3-yl)-5-(methylthio)-7-(thiazol-2-yl)benzo[d]oxazole], the IC50 is less than 100 nM.
For `OCCOC(c1cc(-c2nccs2)c2oc(N3CC4CCC(C3)N4)nc2c1)C(F)(F)F` (stereo not shown) [Example 149, 2-(1-(2-(3,8-Diazabicyclo[3.2.1]octan-3-yl)-7-(thiazol-2-yl)benzo[d]oxazol-5-yl)-2,2,2-trifluoroethoxy)ethan-1-ol], the IC50 was less than 100 nM.
For the compound `COC(c1ccc(-c2nccs2)c2oc(N3CC4CCC(C3)N4)nc12)C(F)F` (stereo not shown) [Example 131, 2-(3,8-Diazabicyclo[3.2.1]octan-3-yl)-4-(2,2-difluoro-1-methoxyethyl)-7-(thiazol-2-yl)benzo[d]oxazole], the IC50 is less than 100 nM.
As to `FC(F)(F)Oc1c(Cl)cc(-c2ncco2)c2oc(N3CC4CCC(C3)N4)nc12` [Example 9, 2-(3,8-Diazabicyclo[3.2.1]octan-3-yl)-5-chloro-7-(oxazol-2-yl)-4-(trifluoromethoxy)benzo[d]oxazole], the IC50 was less than 100 nM.
As for `Clc1ccc(-c2nccs2)c2oc(N3CC4CCC(C3)N4)nc12` [Example 36, 2-(3,8-Diazabicyclo[3.2.1]octan-3-yl)-4-chloro-7-(thiazol-2-yl)benzo[d]oxazole], the IC50 is less than 100 nM.
For `C[S+]([O-])c1cc(-c2nccs2)c2oc(N3CC4CCCC(C3)N4)nc2c1` (stereo not shown) [Example 44, 2-(3,9-Diazabicyclo[3.3.1]nonan-3-yl)-5-(methylsulfinyl)-7-(thiazol-2-yl)benzo[d]oxazole], the IC50 is less than 100 nM.
Regarding `CC(C)(O)COC(c1ccc(-c2nccs2)c2oc(N3CC4CC(C3)N4)nc12)C(F)F` (stereo not shown) [Example 127, 1-(1-(2-(3,6-Diazabicyclo[3.1.1]heptan-3-yl)-7-(thiazol-2-yl)benzo[d]oxazol-4-yl)-2,2-difluoroethoxy)-2-methylpropan-2-ol], the IC50 is less than 100 nM.
On the same count and under the same terms, the figure for `OC(c1ccc(-c2nccs2)c2oc(N3CC4CC(C3)N4)nc12)C(F)(F)F` (stereo not shown) [Example 121, 1-(2-(3,6-Diazabicyclo[3.1.1]heptan-3-yl)-7-(thiazol-2-yl)benzo[d]oxazol-4-yl)-2,2,2-trifluoroethan-1-ol] is less than 100 nM.
On to `O=C(c1cc(-c2nccs2)c2oc(N3CC4CCC(C3)N4)nc2c1)N1CCCCC1` [Example 96, (2-(3,8-Diazabicyclo[3.2.1]octan-3-yl)-7-(thiazol-2-yl)benzo[d]oxazol-5-yl)(piperidin-1-yl)methanone], for which the IC50 was less than 100 nM.
Still for that read-out and setting: the figure for `O=C(c1ccc(-c2nccs2)c2oc(N3CC4CCC(C3)N4)nc12)N1CCOCC1` [Example 116, (2-(3,8-Diazabicyclo[3.2.1]octan-3-yl)-7-(thiazol-2-yl)benzo[d]oxazol-4-yl) (morpholino)methanone] is less than 100 nM; for `CC(C)c1cc(-c2nccs2)c2oc(N3CC4CC(C3)N4)nc2c1` [Example 22, 2-(3,6-Diazabicyclo[3.1.1]heptan-3-yl)-5-isopropyl-7-(thiazol-2-yl)benzo[d]oxazole] it is less than 100 nM; for `FC(F)(F)c1c(Cl)cc(-n2cccn2)c2oc(N3CC4COCC(C3)N4)nc12` [Example 18, 7-(5-Chloro-7-(1H-pyrazol-1-yl)-4-(trifluoromethyl)benzo[d]oxazol-2-yl)-3-oxa-7,9-diazabicyclo[3.3.1]nonane] it is 100 to 1000 nM.
In the case of `CCOC(=O)c1cc(-n2cccn2)c2oc(N3CC4COCC(C3)N4)nc2c1` [Example 92, Ethyl 2-(3-oxa-7,9-diazabicyclo[3.3.1]nonan-7-yl)-7-(1H-pyrazol-1-yl)benzo[d]oxazole-5-carboxylate], the IC50 is more than 1000 nM.
Still for that read-out and setting: in the case of `Oc1ccc(-c2nccs2)c2oc(N3CC4CCC(C3)N4)nc12` [Example 78, 2-(3,8-Diazabicyclo[3.2.1]octan-3-yl)-7-(thiazol-2-yl)benzo[d]oxazol-4-ol] it was less than 100 nM; in that of `CC(C)c1cc(-c2nccs2)c2oc(N3CC4CCCC(C3)N4)nc2c1` [Example 24, 2-(3,9-Diazabicyclo[3.3.1]nonan-3-yl)-5-isopropyl-7-(thiazol-2-yl)benzo[d]oxazole], less than 100 nM; in that of `OC(O)(c1cc(-c2nccs2)c2oc(N3CC4CCC(C3)N4)nc2c1)C(F)(F)F` [Example 157, 1-(2-(3,8-Diazabicyclo[3.2.1]octan-3-yl)-7-(thiazol-2-yl)benzo[d]oxazol-5-yl)-2,2,2-trifluoroethane-1,1-diol], less than 100 nM.
On to `FC(F)(F)c1c(Cl)cc(-c2ccccn2)c2oc(N3CC4CC(C3)N4)nc12` [Example 13, 2-(3,6-Diazabicyclo[3.1.1]heptan-3-yl)-5-chloro-7-(pyridin-2-yl)-4-(trifluoromethyl)benzo[d]oxazole], for which the IC50 is less than 100 nM.

Staying with this test, now noted: scintillation proximity assay; read-out: PDE4 Inhibitory Activity (Evaluation 1; concentration for the inhibition rate of 50%).
As for `CC(O)(c1ccc(-c2nccs2)c2oc(N3CC4CC(C3)N4)nc12)C(F)(F)F` (stereo not shown) [Example 270, 2-(2-(3,6-Diazabicyclo[3.1.1]heptan-3-yl)-7-(thiazol-2-yl)benzo[d]oxazol-4-yl)-1,1,1-trifluoropropan-2-ol], the IC50 is less than 100 nM.
`CCOC(=O)c1cc(-c2nccs2)c2oc(N3CC4CCC(C3)N4)nc2c1OC(F)(F)F` [Example 186, Ethyl 2-(3,8-diazabicyclo[3.2.1]octan-3-yl)-7-(thiazol-2-yl)-4-(trifluoromethoxy)benzo[d]oxazole-5-carboxylate]: the IC50 was less than 100 nM.
Turning to `OC(c1cc(-c2nccs2)c2oc(N3CC4CC(C3)N4)nc2c1OC(F)(F)F)C(F)F` (stereo not shown) [Example 292, 1-(2-(3,6-Diazabicyclo[3.1.1]heptan-3-yl)-7-(thiazol-2-yl)-4-(trifluoromethoxy)benzo[d]oxazol-5-yl)-2,2-difluoroethan-1-ol], the IC50 was less than 100 nM.
With `CC(C)C(O)c1cc(-c2nccs2)c2oc(N3CC4CCC(C3)N4)nc2c1OC(F)(F)F` (stereo not shown) [Example 205, 1-(2-(3,8-Diazabicyclo[3.2.1]octan-3-yl)-7-(thiazol-2-yl)-4-(trifluoromethoxy)benzo[d]oxazol-5-yl)-2-methylpropan-1-ol], the IC50 is less than 100 nM.
On to `CC(=O)c1ccc(-c2nccs2)c2oc(N3CC4CC(C3)N4)nc12` [Example 244, 1-(2-(3,6-Diazabicyclo[3.1.1]heptan-3-yl)-7-(thiazol-2-yl)benzo[d]oxazol-4-yl)ethan-1-one], for which the IC50 was less than 100 nM.
As for `CC(O)c1ccc(-c2nccs2)c2oc(N3CC4CC(C3)N4)nc12` (stereo not shown) [Example 240, 1-(2-(3,6-Diazabicyclo[3.1.1]heptan-3-yl)-7-(thiazol-2-yl)benzo[d]oxazol-4-yl)ethan-1-ol], the IC50 is less than 100 nM.
Consider `OC(c1cc(-c2nccs2)c2oc(N3CC4CCC(C3)N4)nc2c1OC(F)(F)F)C(F)F` (stereo not shown) [Example 276, 1-(2-(3,8-Diazabicyclo[3.2.1]octan-3-yl)-7-(thiazol-2-yl)-4-(trifluoromethoxy)benzo[d]oxazol-5-yl)-2,2-difluoroethan-1-ol], for which the IC50 was less than 100 nM.
Same read-out and setting: in the case of `CC(=O)c1ccc(-c2nccs2)c2oc(N3CC4CCC(C3)N4)nc12` [Example 245, 1-(2-(3,8-Diazabicyclo[3.2.1]octan-3-yl)-7-(thiazol-2-yl)benzo[d]oxazol-4-yl)ethan-1-one] it was less than 100 nM; in that of `COC(C)c1cc(-c2nccs2)c2oc(N3CC4CC(C3)N4)nc2c1C(F)(F)F` (stereo not shown) [Example 185, 2-(3,6-Diazabicyclo[3.1.1]heptan-3-yl)-5-(1-methoxyethyl)-7-(thiazol-2-yl)-4-(trifluoromethyl)benzo[d]oxazole], less than 100 nM.
With `OC(c1cc(-c2cscn2)c2oc(N3CC4CC(C3)N4)nc2c1OC(F)(F)F)C(F)F` (stereo not shown) [Example 300, 1-(2-(3,6-Diazabicyclo[3.1.1]heptan-3-yl)-7-(thiazol-4-yl)-4-(trifluoromethoxy)benzo[d]oxazol-5-yl)-2,2-difluoroethan-1-ol], the IC50 is less than 100 nM.
On to `CC(O)c1cc(-c2nccs2)c2oc(N3CC4CCC(C3)N4O)nc2c1OC(F)(F)F` (stereo not shown) [Example 383, 3-(5-(1-Hydroxyethyl)-7-(thiazol-2-yl)-4-(trifluoromethoxy)benzo[d]oxazol-2-yl)-3,8-diazabicyclo[3.2.1]octan-8-ol], for which the IC50 was more than 1000 nM.
As for `CCOC(=O)c1cc(-c2nccs2)c2oc(N3CC4CCCC(C3)N4)nc2c1OC(F)(F)F` [Example 188, Ethyl 2-(3,9-diazabicyclo[3.3.1]nonan-3-yl)-7-(thiazol-2-yl)-4-(trifluoromethoxy)benzo[d]oxazole-5-carboxylate], the IC50 was less than 100 nM.
Take `CN(CCO)C(=O)c1cc(-c2nccs2)c2oc(N3CC4CCC(C3)N4)nc2c1OC(F)(F)F` [Example 193, 2-(3,8-Diazabicyclo[3.2.1]octan-3-yl)-N-(2-hydroxyethyl)-N-methyl-7-(thiazol-2-yl)-4-(trifluoromethoxy)benzo[d]oxazole-5-carboxamide]: the IC50 was less than 100 nM.
Turning to `O=C(O)c1ccc(-c2nccs2)c2oc(N3CC4CCC(C3)N4)nc12` [Example 238, 2-(3,8-Diazabicyclo[3.2.1]octan-3-yl)-7-(thiazol-2-yl)benzo[d]oxazole-4-carboxylic acid], the IC50 is less than 100 nM.
On to `NS(=O)(=O)c1ccc(-c2nccs2)c2oc(N3CC4CC(C3)N4)nc12` [Example 396, 2-(3,6-Diazabicyclo[3.1.1]heptan-3-yl)-7-(thiazol-2-yl)benzo[d]oxazole-4-sulfonamide], for which the IC50 was less than 100 nM.
For `CC(C)(O)C(Oc1ccc(-c2nccs2)c2oc(N3CC4CC(C3)N4)nc12)C(F)(F)F` (stereo not shown) [Example 313, 3-((2-(3,6-Diazabicyclo[3.1.1]heptan-3-yl)-7-(thiazol-2-yl)benzo[d]oxazol-4-yl)oxy)-4,4,4-trifluoro-2-methylbutan-2-ol], the IC50 was less than 100 nM.

These data come from patent US12239643B2, “Therapeutic agent for inflammatory diseases, autoimmune diseases, fibrotic diseases, and cancer diseases” (MEIJI SEIKA PHARMA CO., LTD., priority 2018, dated 2025).
